The text below walks through data of ChEMBL document CHEMBL1909570, “Synthesis and antibacterial activity of N4-mono alkyl derivatives of novel glycopeptide LYV07ww01” (2011).

Assay type in all cases: functional
The test system of one assay is Staphylococcus aureus. Nature of the assay: Antibacterial activity against Staphylococcus aureus 26003 by CLSI agar microdilution method.
The test system of the next assay is Staphylococcus. The experiment in a line: Antibacterial activity against Staphylococcus albus 26101 by CLSI agar microdilution method.
For the next assay, the system named is Streptococcus pneumoniae. The experiment in a line: Antibacterial activity against Streptococcus pneumoniae 31002 by CLSI agar microdilution method.
In another assay the test system is Streptococcus. The experiment in a line: Antibacterial activity against Streptococcus gamma 32206 by CLSI agar microdilution method.
Assay [1] relates to Staphylococcus epidermidis. The experiment in a line: Antibacterial activity against Staphylococcus epidermidis 26069 by CLSI agar microdilution method.
The next assay deals with Enterococcus faecium. Nature of the assay: Antibacterial activity against Enterococcus faecium 32220 by CLSI agar microdilution method.

Values after ≈ are worked out from the molar mass of the structure shown.

The term MIC denotes the lowest concentration found to suppress growth. For `CN[C@H](CC(C)C)C(=O)N[C@H]1C(=O)N[C@@H](CC(N)=O)C(=O)N[C@H]2C(=O)N[C@H]3C(=O)N[C@H](C(=O)N[C@@H](C(=O)O)c4cc(O)cc(O)c4-c4cc3ccc4O)[C@H](O[C@H]3C[C@](C)(N)[C@H](O)[C@H](C)O3)c3ccc(c(Cl)c3)Oc3cc2cc(c3O[C@@H]2O[C@H](CO)[C@@H](O)[C@H](O)[C@H]2O[C@H]2C[C@](C)(NCc3ccc(Sc4ccccc4)cc3)[C@H](O)[C@H](C)O2)Oc2ccc(cc2Cl)[C@H]1O`, the minimal inhibitory concentration (MIC) in the assay on Staphylococcus aureus was 3.13 µg/mL (≈ 1.75 µM); in the assay on Staphylococcus it was 3.13 µg/mL (≈ 1.75 µM); with Streptococcus pneumoniae it was 3.13 µg/mL (≈ 1.75 µM); in the assay with Streptococcus, 3.13 µg/mL (≈ 1.75 µM); in assay [1] it was > 25 µg/mL; against Enterococcus faecium, 3.13 µg/mL (≈ 1.75 µM).
Turning to `CN[C@H](CC(C)C)C(=O)N[C@H]1C(=O)N[C@@H](CC(N)=O)C(=O)N[C@H]2C(=O)N[C@H]3C(=O)N[C@H](C(=O)N[C@@H](C(=O)O)c4cc(O)cc(O)c4-c4cc3ccc4O)[C@H](O[C@H]3C[C@](C)(N)[C@H](O)[C@H](C)O3)c3ccc(c(Cl)c3)Oc3cc2cc(c3O[C@@H]2O[C@H](CO)[C@@H](O)[C@H](O)[C@H]2O[C@H]2C[C@](C)(NCc3ccc(Oc4ccc(OC)cc4)cc3)[C@H](O)[C@H](C)O2)Oc2ccc(cc2Cl)[C@H]1O`, the MIC with Staphylococcus aureus was 1.56 µg/mL (≈ 0.864 µM); in the assay on Staphylococcus it was 3.13 µg/mL (≈ 1.73 µM); in the assay with Streptococcus pneumoniae, 1.56 µg/mL (≈ 0.864 µM); against Streptococcus it was 1.56 µg/mL (≈ 0.864 µM); in assay [1] it was > 25 µg/mL; with Enterococcus faecium it was 1.56 µg/mL (≈ 0.864 µM).
On to `CCCCCCCCCCN[C@@]1(C)C[C@H](O[C@H]2[C@H](Oc3c4cc5cc3Oc3ccc(cc3Cl)[C@@H](O[C@H]3C[C@](C)(N)[C@H](O)[C@H](C)O3)[C@@H]3NC(=O)[C@H](NC(=O)[C@@H]5NC(=O)[C@H](CC(N)=O)NC(=O)[C@H](NC(=O)[C@@H](CC(C)C)NC)[C@H](O)c5ccc(c(Cl)c5)O4)c4ccc(O)c(c4)-c4c(O)cc(O)cc4[C@H](C(=O)O)NC3=O)O[C@H](CO)[C@@H](O)[C@@H]2O)O[C@@H](C)[C@H]1O`, for which the minimal inhibitory concentration (MIC) was 6.25 µg/mL (≈ 3.61 µM) in the assay on Staphylococcus aureus; 6.25 µg/mL (≈ 3.61 µM) in the assay with Staphylococcus; 6.25 µg/mL (≈ 3.61 µM) in the assay with Streptococcus pneumoniae; 6.25 µg/mL (≈ 3.61 µM) in the assay on Streptococcus; > 25 µg/mL in assay [1]; > 25 µg/mL in the assay with Enterococcus faecium.
With `CCCCCCOc1ccc(CN[C@@]2(C)C[C@H](O[C@H]3[C@H](Oc4c5cc6cc4Oc4ccc(cc4Cl)[C@@H](O[C@H]4C[C@](C)(N)[C@H](O)[C@H](C)O4)[C@@H]4NC(=O)[C@H](NC(=O)[C@@H]6NC(=O)[C@H](CC(N)=O)NC(=O)[C@H](NC(=O)[C@@H](CC(C)C)NC)[C@H](O)c6ccc(c(Cl)c6)O5)c5ccc(O)c(c5)-c5c(O)cc(O)cc5[C@H](C(=O)O)NC4=O)O[C@H](CO)[C@@H](O)[C@@H]3O)O[C@@H](C)[C@H]2O)cc1`, the MIC was 6.25 µg/mL (≈ 3.51 µM) in the assay on Staphylococcus aureus; 6.25 µg/mL (≈ 3.51 µM) with Staphylococcus; 3.13 µg/mL (≈ 1.76 µM) against Streptococcus pneumoniae; 3.13 µg/mL (≈ 1.76 µM) in the assay on Streptococcus; > 25 µg/mL in assay [1]; 6.25 µg/mL (≈ 3.51 µM) against Enterococcus faecium.
Take `CN[C@H](CC(C)C)C(=O)N[C@H]1C(=O)N[C@@H](CC(N)=O)C(=O)N[C@H]2C(=O)N[C@H]3C(=O)N[C@H](C(=O)N[C@@H](C(=O)O)c4cc(O)cc(O)c4-c4cc3ccc4O)[C@H](O[C@H]3C[C@](C)(N)[C@H](O)[C@H](C)O3)c3ccc(c(Cl)c3)Oc3cc2cc(c3O[C@@H]2O[C@H](CO)[C@@H](O)[C@H](O)[C@H]2O[C@H]2C[C@](C)(NCc3ccc(Cl)cc3)[C@H](O)[C@H](C)O2)Oc2ccc(cc2Cl)[C@H]1O`: the MIC came out at 3.13 µg/mL (≈ 1.82 µM) in the assay on Staphylococcus aureus; 3.13 µg/mL (≈ 1.82 µM) against Staphylococcus; 1.56 µg/mL (≈ 0.909 µM) against Streptococcus pneumoniae; 1.56 µg/mL (≈ 0.909 µM) with Streptococcus; 12.5 µg/mL (≈ 7.28 µM) in assay [1]; 3.13 µg/mL (≈ 1.82 µM) against Enterococcus faecium.
Turning to `CN[C@H](CC(C)C)C(=O)N[C@H]1C(=O)N[C@@H](CC(N)=O)C(=O)N[C@H]2C(=O)N[C@H]3C(=O)N[C@H](C(=O)N[C@@H](C(=O)O)c4cc(O)cc(O)c4-c4cc3ccc4O)[C@H](O[C@H]3C[C@](C)(N)[C@H](O)[C@H](C)O3)c3ccc(c(Cl)c3)Oc3cc2cc(c3O[C@@H]2O[C@H](CO)[C@@H](O)[C@H](O)[C@H]2O[C@H]2C[C@](C)(NC/C=C/c3ccccc3)[C@H](O)[C@H](C)O2)Oc2ccc(cc2Cl)[C@H]1O`, the minimal inhibitory concentration (MIC) with Staphylococcus aureus was 3.13 µg/mL (≈ 1.83 µM); against Staphylococcus it was 3.13 µg/mL (≈ 1.83 µM); against Streptococcus pneumoniae it was 1.56 µg/mL (≈ 0.913 µM); in the assay on Streptococcus it was 1.56 µg/mL (≈ 0.913 µM); in assay [1] it was > 25 µg/mL; against Enterococcus faecium it was 3.13 µg/mL (≈ 1.83 µM).
On to `CN[C@H](CC(C)C)C(=O)N[C@H]1C(=O)N[C@@H](CC(N)=O)C(=O)N[C@H]2C(=O)N[C@H]3C(=O)N[C@H](C(=O)N[C@@H](C(=O)O)c4cc(O)cc(O)c4-c4cc3ccc4O)[C@H](O[C@H]3C[C@](C)(N)[C@H](O)[C@H](C)O3)c3ccc(c(Cl)c3)Oc3cc2cc(c3O[C@@H]2O[C@H](CO)[C@@H](O)[C@H](O)[C@H]2O[C@H]2C[C@](C)(NCc3ccc(-c4ccccc4)cc3)[C@H](O)[C@H](C)O2)Oc2ccc(cc2Cl)[C@H]1O`, for which the minimal inhibitory concentration (MIC) turned out to be 3.13 µg/mL (≈ 1.78 µM) against Staphylococcus aureus; 1.56 µg/mL (≈ 0.887 µM) against Staphylococcus; 1.56 µg/mL (≈ 0.887 µM) in the assay on Streptococcus pneumoniae; 0.78 µg/mL (≈ 0.444 µM) against Streptococcus; 6.25 µg/mL (≈ 3.55 µM) in assay [1]; 1.56 µg/mL (≈ 0.887 µM) against Enterococcus faecium.
`CN[C@H](CC(C)C)C(=O)N[C@H]1C(=O)N[C@@H](CC(N)=O)C(=O)N[C@H]2C(=O)N[C@H]3C(=O)N[C@H](C(=O)N[C@@H](C(=O)O)c4cc(O)cc(O)c4-c4cc3ccc4O)[C@H](O[C@H]3C[C@](C)(N)[C@H](O)[C@H](C)O3)c3ccc(c(Cl)c3)Oc3cc2cc(c3O[C@@H]2O[C@H](CO)[C@@H](O)[C@H](O)[C@H]2O[C@H]2C[C@](C)(NCc3ccc(Cl)c(Cl)c3)[C@H](O)[C@H](C)O2)Oc2ccc(cc2Cl)[C@H]1O`: the MIC was 3.13 µg/mL (≈ 1.79 µM) in the assay with Staphylococcus aureus; 3.13 µg/mL (≈ 1.79 µM) in the assay on Staphylococcus; 0.78 µg/mL (≈ 0.445 µM) in the assay with Streptococcus pneumoniae; 0.78 µg/mL (≈ 0.445 µM) against Streptococcus; > 25 µg/mL in assay [1]; 6.25 µg/mL (≈ 3.57 µM) in the assay with Enterococcus faecium.
On to `CCCCCN[C@@]1(C)C[C@H](O[C@H]2[C@H](Oc3c4cc5cc3Oc3ccc(cc3Cl)[C@@H](O[C@H]3C[C@](C)(N)[C@H](O)[C@H](C)O3)[C@@H]3NC(=O)[C@H](NC(=O)[C@@H]5NC(=O)[C@H](CC(N)=O)NC(=O)[C@H](NC(=O)[C@@H](CC(C)C)NC)[C@H](O)c5ccc(c(Cl)c5)O4)c4ccc(O)c(c4)-c4c(O)cc(O)cc4[C@H](C(=O)O)NC3=O)O[C@H](CO)[C@@H](O)[C@@H]2O)O[C@@H](C)[C@H]1O`, for which the MIC in the assay with Staphylococcus aureus is 1.56 µg/mL (≈ 0.938 µM); in the assay with Staphylococcus, 3.13 µg/mL (≈ 1.88 µM); in the assay with Streptococcus pneumoniae, 0.39 µg/mL (≈ 0.235 µM); against Streptococcus it was 0.78 µg/mL (≈ 0.469 µM); in assay [1] it was > 25 µg/mL; in the assay on Enterococcus faecium, > 25 µg/mL.
On to `CCCCCCCCOc1ccc(CN[C@@]2(C)C[C@H](O[C@H]3[C@H](Oc4c5cc6cc4Oc4ccc(cc4Cl)[C@@H](O[C@H]4C[C@](C)(N)[C@H](O)[C@H](C)O4)[C@@H]4NC(=O)[C@H](NC(=O)[C@@H]6NC(=O)[C@H](CC(N)=O)NC(=O)[C@H](NC(=O)[C@@H](CC(C)C)NC)[C@H](O)c6ccc(c(Cl)c6)O5)c5ccc(O)c(c5)-c5c(O)cc(O)cc5[C@H](C(=O)O)NC4=O)O[C@H](CO)[C@@H](O)[C@@H]3O)O[C@@H](C)[C@H]2O)cc1`, for which the MIC is 12.5 µg/mL (≈ 6.9 µM) with Staphylococcus aureus; 12.5 µg/mL (≈ 6.9 µM) against Staphylococcus; 6.25 µg/mL (≈ 3.45 µM) in the assay with Streptococcus pneumoniae; 6.25 µg/mL (≈ 3.45 µM) against Streptococcus; > 25 µg/mL in assay [1]; 12.5 µg/mL (≈ 6.9 µM) in the assay with Enterococcus faecium.
